Experiments:
[1] = target: T1, ThsSR (ThsS/R; Shal_3128/9) (Shewanella halifaxensis, UniProt B0TQ83); assay: sfGFP reporter, flow cytometry, repression transfer function; type: cell-based; conditions: read-out: half-maximal inhibition
T1 construct: E. coli codon-optimised ThsS (pKD182, IPTG-inducible) and ThsR (pKD184, aTc-inducible) in E. coli BW28357; PphsA342-sfGFP reporter; membrane histidine kinase with PhnD-like periplasmic sensor domain; with Thiosulfate response regulator ThsR
T1 sequence (B0TQ83 1-594): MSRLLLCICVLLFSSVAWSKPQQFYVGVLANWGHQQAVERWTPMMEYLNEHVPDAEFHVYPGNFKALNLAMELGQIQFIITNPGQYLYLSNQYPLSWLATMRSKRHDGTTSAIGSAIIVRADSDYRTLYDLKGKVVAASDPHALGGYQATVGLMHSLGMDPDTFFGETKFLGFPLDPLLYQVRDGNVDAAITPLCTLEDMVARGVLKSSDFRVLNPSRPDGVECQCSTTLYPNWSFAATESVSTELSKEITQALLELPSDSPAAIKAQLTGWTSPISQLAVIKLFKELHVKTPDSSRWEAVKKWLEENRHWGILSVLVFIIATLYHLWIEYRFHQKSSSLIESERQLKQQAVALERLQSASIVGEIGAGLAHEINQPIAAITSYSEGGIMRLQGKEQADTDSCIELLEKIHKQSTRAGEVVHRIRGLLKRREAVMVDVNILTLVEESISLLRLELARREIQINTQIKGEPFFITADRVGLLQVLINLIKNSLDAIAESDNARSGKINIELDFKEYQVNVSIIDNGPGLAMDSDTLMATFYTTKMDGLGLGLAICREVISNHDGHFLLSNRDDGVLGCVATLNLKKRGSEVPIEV

[2] = target: T1, ThsSR (ThsS/R; Shal_3128/9); assay: sfGFP reporter, flow cytometry, Hill fit; type: cell-based; conditions: read-out: k 1/2
[3] = system: T2, S. baltica TtrSR (Sbal195_3859/8); assay: sfGFP reporter, flow cytometry, Hill fit; type: cell-based, Shewanella baltica; conditions: E. coli BW28357, aerobic, M9 + glycerol, 37°C, 10 μM IPTG; PttrB185-269 reporter; activation; read-out: k 1/2
T2 construct: gene ttrS; E. coli codon-optimised TtrS (pKD227, IPTG-inducible) and TtrR (pKD226, aTc-inducible) in E. coli BW28357; PttrB185-269-sfGFP reporter; with Tetrathionate response regulator TtrR

SMILES	IC50 [1] [µM]	EC50 [2] [µM]	EC50 [3] [µM]
O=S(O)O [sulfite]	390 ± 10	–	–
O=S(O)(O)=S [thiosulfate]	–	280 ± 10	–
O=S(=O)(O)SSS(=O)(=O)O [tetrathionate]	550 ± 20	–	50 ± 3
